Laboratory results taken from ChEMBL document CHEMBL1131799, “Polyunsaturated fatty acid anilides as inhibitors of acyl-coA: cholesterol acyltransferase (ACAT)” (Bioorg Med Chem Lett, 1999).

Key:
[1] = biological target: T1, Acyl-CoA:cholesterol acyltransferase (Oryctolagus cuniculus, UniProt Q95214); experiment: Compound was tested for inhibitory activity against ACAT from rabbit adrenal gland; type: tissue-based
T1 sequence (Q95214 whole entry): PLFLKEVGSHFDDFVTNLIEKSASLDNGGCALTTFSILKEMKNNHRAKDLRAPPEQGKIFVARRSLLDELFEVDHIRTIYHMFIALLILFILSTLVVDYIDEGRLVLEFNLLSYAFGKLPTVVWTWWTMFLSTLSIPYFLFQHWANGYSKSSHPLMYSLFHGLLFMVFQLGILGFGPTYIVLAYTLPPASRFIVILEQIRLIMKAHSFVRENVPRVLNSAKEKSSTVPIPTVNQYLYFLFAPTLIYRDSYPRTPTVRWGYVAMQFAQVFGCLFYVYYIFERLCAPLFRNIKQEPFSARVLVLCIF

[2] = biological target: T1, Acyl-CoA:cholesterol acyltransferase; experiment: Compound was tested for inhibitory activity against ACAT from rabbit liver
O-acyltransferase = O-acyltransferase (Oryctolagus cuniculus, UniProt G1SFD9); experiment: Compound was tested for inhibitory activity against ACAT from rabbit intestine; type: tissue-based
O-acyltransferase, sequence (G1SFD9 1-524): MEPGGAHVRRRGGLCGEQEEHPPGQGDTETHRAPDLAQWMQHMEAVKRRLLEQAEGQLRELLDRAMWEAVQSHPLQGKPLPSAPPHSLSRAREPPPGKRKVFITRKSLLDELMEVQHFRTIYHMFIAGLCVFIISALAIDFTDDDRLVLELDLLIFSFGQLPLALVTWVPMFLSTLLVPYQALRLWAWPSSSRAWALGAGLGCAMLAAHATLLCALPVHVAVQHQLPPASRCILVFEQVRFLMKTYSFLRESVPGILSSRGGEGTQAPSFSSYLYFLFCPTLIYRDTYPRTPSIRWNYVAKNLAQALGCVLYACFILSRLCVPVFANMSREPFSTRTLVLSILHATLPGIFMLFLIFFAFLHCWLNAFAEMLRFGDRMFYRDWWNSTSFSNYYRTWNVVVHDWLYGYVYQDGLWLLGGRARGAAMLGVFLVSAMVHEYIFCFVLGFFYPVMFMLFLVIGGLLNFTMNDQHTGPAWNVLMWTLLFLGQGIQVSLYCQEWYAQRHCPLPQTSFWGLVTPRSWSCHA

| IC50 [1] [nM] | IC50 [2] [nM] | Structure (SMILES) | IC50 (O-acyltransferase) [nM] |
| --- | --- | --- | --- |
| 1950 | 191 | CCCCCCCCCCC(C)(C)C(=O)Nc1c(OC)cc(OC)cc1OC [CL-976] | – |
| 554 | 15 | CCCCCCCCCCCCCC(=S)Nc1c(C(C)C)cccc1C(C)C | 6 |

| Structure (SMILES) | IC50 [1] [nM] | IC50 [2] [nM] | IC50 (O-acyltransferase) [nM] |
| --- | --- | --- | --- |
| C/C=C/C/C=C/C/C=C/C/C=C/C/C=C/C/C=C/CCCC(=O)Nc1c(C(C)C)cccc1C(C)C | 228 | 56 | 45 |
